Measured values published in paper PMC6025622, “A Novel Atypical PKC-Iota Inhibitor, Echinochrome A, Enhances Cardiomyocyte Differentiation from Mouse Embryonic Stem Cells” (Marine Drugs, 2018).

Target: T1, atypical protein kinase C-iota (PKCι) (Homo sapiens, UniProt P41743)
T1 construct: gene PRKCI; full-length protein
T1 sequence (P41743 2-596): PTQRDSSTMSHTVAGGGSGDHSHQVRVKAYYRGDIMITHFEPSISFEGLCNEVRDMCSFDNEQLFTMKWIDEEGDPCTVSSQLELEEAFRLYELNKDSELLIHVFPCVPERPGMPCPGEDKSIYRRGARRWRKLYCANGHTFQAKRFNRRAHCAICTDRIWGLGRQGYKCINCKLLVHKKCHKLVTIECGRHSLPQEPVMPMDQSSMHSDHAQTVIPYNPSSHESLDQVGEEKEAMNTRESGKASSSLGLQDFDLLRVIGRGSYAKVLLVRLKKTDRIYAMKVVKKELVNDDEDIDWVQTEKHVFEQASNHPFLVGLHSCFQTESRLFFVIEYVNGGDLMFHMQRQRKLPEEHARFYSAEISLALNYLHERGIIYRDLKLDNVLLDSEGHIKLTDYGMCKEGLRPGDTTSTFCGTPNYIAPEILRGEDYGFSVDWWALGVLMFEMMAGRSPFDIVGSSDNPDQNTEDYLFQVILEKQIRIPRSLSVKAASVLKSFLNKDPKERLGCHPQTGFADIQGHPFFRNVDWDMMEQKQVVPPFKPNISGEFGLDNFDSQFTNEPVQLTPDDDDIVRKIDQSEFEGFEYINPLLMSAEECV
Test: surface plasmon resonance, PKCι immobilized by amine coupling; also cell-free kinase assay IC50 […]
Format: binding

## CCc1c(O)c(O)c2c(c1O)C(=O)C(O)=C(O)C2=O [Ech A, 6-ethyl-2,3,5,7,8-pentahydroxy-1,4-naphthoquinone]
  Kd: 6.3 nM
